Assay results published in paper PMC8347364 (International Journal of Molecular Sciences, 2021).
pIC50: −log10 of the molar value.

How the values were obtained:
ureG = molecular target: T1, ureG (uncultured rumen bacterium, UniProt A0A6M3RDS9); assay: malachite green GTPase assay, single concentration […], almost […] inhibition; type: biochemical
T1 construct: Strep-tagged UreG (GenBank ID: MN660252)

(UniProt A0A6M3RDS9) = molecular target: T2, (UniProt A0A6M3RDS9); assay: malachite green GTPase assay (IC50); Lineweaver-Burk Ki […]; CD change; ITC of nickel binding in its presence; type: biochemical, uncultured rumen bacterium
T2 construct: gene ureG; Strep-tagged UreG (GenBank ID: MN660252)
T2 sequence (A0A6M3RDS9 1-203): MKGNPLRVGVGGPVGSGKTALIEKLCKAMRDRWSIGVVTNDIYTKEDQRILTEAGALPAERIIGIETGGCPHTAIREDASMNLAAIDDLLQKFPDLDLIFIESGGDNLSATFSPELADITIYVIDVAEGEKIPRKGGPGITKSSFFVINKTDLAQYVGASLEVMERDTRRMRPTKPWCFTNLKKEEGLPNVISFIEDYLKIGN

T1 sequence (A0A6M3RDS9 1-203): as above

Which inhibition at 100 µM (ureG) does the source give for `C=C(C)[C@@H]1CC[C@]2(C(=O)O)CC[C@]3(C)[C@H](CC[C@@H]4[C@@]5(C)CC[C@H](O)[C@@](C)(CO)[C@@H]5CC[C@]43C)[C@@H]12` [anemosapogenin] here?
The inhibition at 100 µM was roughly 100%.

`COc1ccc2c(c[n+](C)c3c4cc5c(cc4ccc23)OCO5)c1OC` [chelerythrine chloride] was tested. Which pIC50 ((UniProt A0A6M3RDS9)) did it give?
The pIC50 was 4.74.

`O=C(/C=C/c1ccc(O)c(O)c1)O[C@H]1[C@H](O)C[C@](O)(C(=O)O)C[C@H]1OC(=O)/C=C/c1ccc(O)c(O)c1` [isochlorogenic acid B] was tested. Which inhibition at 100 µM (ureG) did it give?
The inhibition at 100 µM was roughly 100%.
